What was measured:
Assay in all cases: drug sensitivity score (DSS3, normalised partial AUC of % inhibition dose-response) (DSS (score)); higher = more sensitive (stronger inhibition of viability); extreme values may be limits of the assay
[1] = tested on: FMOC06 (patient-derived mucinous ovarian cancer cells); details: 72 h; library: FO5A; assay format: 2D, 384-well, CellTiter-Glo
Summary of the method: (§1)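 The drug sensitivity score is calculated as a partial area under the percent-inhibition dose-response curve, divided by the log of the upper asymptote; higher scores mean more sensitive. For this score, early-passage (under 10) patient-derived ovarian cancer cells were exposed on 384-well flat clear-bottom plates to compounds at five concentrations across a 10,000-fold range for 72 h at 37 °C, 5% CO2. Viability was read with CellTiter-Glo and processed in Breeze.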

[2] = tested on: FMOC22 (patient-derived mucinous ovarian cancer cells); details: 72 h; library: FO5A; assay format: 2D, 384-well, CellTiter-Glo
Summary of the method: as §1

[3] = tested on: FMOC02_1 (patient-derived low-grade serous ovarian cancer cells); details: 72 h; library: FO5A; assay format: 2D, 384-well, CellTiter-Glo
Summary of the method: as §1

[4] = tested on: FMOC04 (patient-derived high-grade serous ovarian cancer cells); details: 72 h; library: FO5A; assay format: 2D, 384-well, CellTiter-Glo
Summary of the method: as §1

[5] = tested on: FMOC11 (patient-derived high-grade serous ovarian cancer cells); details: 72 h; library: FO5A; assay format: 2D, 384-well, CellTiter-Glo
Summary of the method: as §1

[6] = tested on: FMOC24 (patient-derived high-grade serous ovarian cancer cells); details: 72 h; library: FO5A; assay format: 2D, 384-well, CellTiter-Glo
Summary of the method: as §1

[7] = tested on: FMOC28 (patient-derived low-grade serous ovarian cancer cells); details: 72 h; library: FO5A; assay format: 2D, 384-well, CellTiter-Glo
Summary of the method: as §1

[8] = tested on: FMOC14 (patient-derived high-grade serous ovarian cancer cells); details: 72 h; library: FO5A; assay format: 2D, 384-well, CellTiter-Glo
Summary of the method: as §1

[9] = tested on: FMOC17 (patient-derived low-grade serous ovarian cancer cells); details: 72 h; library: FO5A; assay format: 2D, 384-well, CellTiter-Glo
Summary of the method: as §1

[10] = tested on: FMOC27 (patient-derived low-grade serous ovarian cancer cells); details: 72 h; library: FO5A; assay format: 2D, 384-well, CellTiter-Glo
Summary of the method: as §1

[11] = tested on: FMOC02_3 (patient-derived low-grade serous ovarian cancer cells); details: 72 h; library: FO5A; assay format: 2D, 384-well, CellTiter-Glo
Summary of the method: as §1

[12] = tested on: FMOC25_1 (patient-derived low-grade serous ovarian cancer cells); details: 72 h; library: FO4B; assay format: 2D, 384-well, CellTiter-Glo
Summary of the method: as §1

[13] = tested on: FMOC25_2 (patient-derived low-grade serous ovarian cancer cells); details: 72 h; library: FO5A; assay format: 2D, 384-well, CellTiter-Glo
Summary of the method: as §1

[14] = tested on: FMOC09 (patient-derived high-grade serous ovarian cancer cells); details: 72 h; library: FO5A; assay format: 2D, 384-well, CellTiter-Glo
Summary of the method: as §1

[15] = tested on: FMOC03 (patient-derived mucinous ovarian cancer cells); details: 72 h; library: FO5A; assay format: 2D, 384-well, CellTiter-Glo
Summary of the method: as §1

[16] = tested on: FMOC02_2 (patient-derived low-grade serous ovarian cancer cells); details: 72 h; library: FO5A; assay format: 2D, 384-well, CellTiter-Glo
Summary of the method: as §1

SMILES	drug sensitivity score [1]	drug sensitivity score [2]	drug sensitivity score [3]	drug sensitivity score [4]	drug sensitivity score [5]	drug sensitivity score [6]	drug sensitivity score [7]	drug sensitivity score [8]	drug sensitivity score [9]	drug sensitivity score [10]	drug sensitivity score [11]	drug sensitivity score [12]	drug sensitivity score [13]	drug sensitivity score [14]	drug sensitivity score [15]	drug sensitivity score [16]
Nc1nc(Cl)nc2c1ncn2[C@H]1C[C@H](O)[C@@H](CO)O1 [Cladribine]	0.2	3.9	7	0.2	0.8	0	0.3	0	0.4	2.3	4	2.4	7.2	1.8	0.5	3.3
CCCc1cc(C)[nH]c(=O)c1CNC(=O)c1cc(-c2ccnc(N3CCN(C)CC3)c2)cc2c1cnn2C(C)C [GSK343]	0	0	0	0	0	0.55	2	0	0.3	0	0	1.6	0.1	0.1	0	0
COc1cc2nccc(Oc3ccc(NC(=O)NC4CC4)c(Cl)c3)c2cc1C(N)=O [Lenvatinib]	0	0	0	0	0	0	0	0	0	0	0	0	0.1	0	0	0
CN(c1ncccc1CNc1nc(Nc2ccc3c(c2)CC(=O)N3)ncc1C(F)(F)F)S(C)(=O)=O	6.6	5.7	6.6	5.3	4.9	5.3	7.9	3.6	7	5.2	9.5	3.9	7.8	5.1	7.1	9.4
CN(C)C(=O)c1cc2cnc(Nc3ccc(N4CCNCC4)cn3)nc2n1C1CCCC1 [Ribociclib]	0.6	0	3.1	0.05	0	1.8	1.7	0	0.3	0.6	4.4	0	0.8	0	0.5	1.8
Nc1ncnc2c1c(COc1cccc(Cl)c1)nn2C1CCOCC1	0	0	0.5	0	0	0	0	0.3	0	0.8	0.4	0.6	1.9	0	0	1
COc1ccc(CCc2nc3cc(-c4c(C)noc4C)ccc3n2C[C@H](C)N2CCOCC2)cc1Cl [SGC-CBP30]	4.6	2.9	4.5	1.3	4.6	5.6	2.4	1	1.4	3.1	2	0.8	6.1	2.5	2.8	3.3
Cn1cncc1[C@@](N)(c1ccc(Cl)cc1)c1ccc2c(c1)c(-c1cccc(Cl)c1)cc(=O)n2C [Tipifarnib]	8.8	5.3	6.9	4.45	5.3	4.1	5.8	3.5	1.8	3.3	9.5	9.7	9.8	2.2	6	6.2
CS(=O)(=O)c1ccc(C(=O)Nc2ccc(Cl)c(-c3ccccn3)c2)c(Cl)c1 [Vismodegib]	0.3	0	0	0	0	1.95	0	0	0	0.8	0	0	0	0	0.6	0.4
Nc1nc(F)nc2c1ncn2[C@@H]1O[C@H](CO)[C@@H](O)[C@@H]1O [Fludarabine]	0.9	1.3	3	0	0	0	0	0	0	0	2	4.3	1.9	0.8	0	0.5

— the supplement of paper PMC9938120
